Laboratory results published in patent US6482609B1, “Isolated human EDG-4 receptor and polynucletide encoding said receptor” (priority 1997, dated 2002).

Assays:
rat edg4 = rat edg4 (Rattus norvegicus, UniProt P47752); test: IL-8 ELISA on COS-1 cells transiently transfected with rat EDG-4; format: cell-based; parameters: expressed in transfected cells
Protocol: (§1) A. DEAE/Dextran Cell Suspension Transient Transfection.
(§2) Transfection was done as described in Anal Biochem 218:460 (1994).
(§3) 1) 6 ml RSC was added to 4-50 ml tubes. The following amounts of DNA were added:
(§4) 3) 1.5 ml COS-1 cell suspension (5.5×10^6 cells total) in RSC was added to each tube and incubated for 105 min in 37° C. incubator. Tubes were mixed every 20 min.
(§5) 4) Following incubation, tubes were spun for 5 min, cell pellets were washed with DMEM/F12+10% FBS once and then resuspended in 10 ml media. Cells were plated in 24-well plates at 0.2×10^6 cells/well.
(§6) 500 μl treatment volume was used. Supernatants were microfuged at 14,000 rpm for 10 min., transferred to new eppendorf tubes and stored at −20° C. for future IL-8 ELISA determination.
(§7) The procedure as outlined in Procedure for HeLa Cells (D) was followed, using 50 μl of sample per ELISA determination in duplicate.

COS-1 cells = test: IL-8 ELISA on control COS-1 cells (empty vector pcDNA3); format: cell-based; conditions: COS-1 cells transfected with pcDNA3; S1P 5 μm
Protocol: as §1, §2, §3, §4, §5, §6, §7

293-EBNA cells = test: IL-8 production in untransfected 293-EBNA cells; format: cell-based
HL-60 cells = test: Cytotoxicity (cell viability) in HL-60 cells; format: cell-based, human
Protocol: For this purpose, an experiment was conducted to measure cytotoxicity in parallel with IL-8 response. […] Therefore, IL-8 production had to be robust to be observed at 6 hr, while even slight or delayed toxicity would be seen as a loss of viability at 24 hr.

EDG-1 [1] = molecular target: T1, EDG-1 (Homo sapiens, UniProt P21453); test: NF-κB luciferase reporter in 293-EBNA cells, EDG-1; format: cell-based; parameters: expressed in transfected cells; host or cells: 293-EBNA; conditions: 3 μM, 6 hours
Protocol: 3) 30 μl Lipofectamine Reagent (Lipofectamine Plus Kit) was diluted in 750 μl DMEM/F12. The diluted Lipofectamine was then combined with the DNA/Plus mixture and incubated at room temperature for 15 min. […] 2) Transfected cells were harvested by trypsinization and 50,000 cells per well were plated in 96-well Blackview plates coated with poly D-lysine (Becton Dickinson Labware, Cat. 40640). No cells were plated in the outside wells of the 96-well plate. […] 1) Media was removed and cells treated with compounds diluted in DMEM/F12 media. […] 2) The cells were treated for 6 hours. 3) Luciferase assay was performed.

HeLa cells = test: Cytotoxicity (viable cell count) in HeLa cells; format: cell-based, human; conditions: S1P concentrations up to 10 μM
Description: Follow Procedure #2 For HeLa Cells with the following exceptions: […]

human EDG-3 = molecular target: T2, human EDG-3 (Homo sapiens, UniProt Q99500); test: Calcium microfluorimetry in 293-EBNA cells, EDG-3; format: cell-based; conditions: EDG-3 transfected cells; 2 μM S1P
T2 construct: expressed in transfected cells; host or cells: 293-EBNA
Protocol: Transfections were carried out with EDG receptors in 293-EBNA cells as described above, except that no reporter gene vector was included in the DNA mix. Two days after transfection, cells were harvested by trypsinization and plated at a density of 200,000 cells onto poly-D-lysine-coated coverslips in 100 μl of medium containing 0.5% FBS. After briefly allowing cell attachment to take place, 2 ml of medium without FBS was added and the cells were incubated overnight. The next day, cells were loaded with 5 μM fura-2 AM ester (Molecular Probes) for 60 min at RT, then washed and used for calcium microfluorimetry. […] Treatments were applied using a gravity-fed perfusion apparatus. Fluorescence emission was continuously monitored and recorded with PTI 2.060a software and analyzed with Sigma Plot software. Intracellular calcium concentrations were calculated by interpolation on a ratiometric fluorescence curve generated from fura-2 fluorescence in a calcium dilution series.

EDG-1 [2] = molecular target: T1, EDG-1; test: SRE luciferase reporter (2XSREtk-p4Luc-zeo) in 293-EBNA cells, EDG-1; format: cell-based; parameters: expressed in transfected cells; host or cells: 293-EBNA; conditions: 3 μM, 6 hours
[3] = tested on: Human Umbilical Vein Endothelial Cells (HUVEC); test: IL-8 ELISA on primary cultured HUVEC treated with lysolipids; format: cell-based; conditions: 6 hr treatment
Protocol: Plating, Pretreatment and Treatment of HUVEC
Procedures were followed as detailed above in “Procedure #1 for HeLa Cells” with the following exceptions:
Cells were plated at 20,000 cells/well into 24-well plates. The next day, cells were serum-starved overnight in EBM medium (Clonetics) with 0.5% FBS, and then treated in EBM without FBS for 6 hr with the following lysolipids:
Supematants were collected and IL-8 levels were deternined using ELISA as described previously.

Chain of rat edg4 (P47752 whole entry): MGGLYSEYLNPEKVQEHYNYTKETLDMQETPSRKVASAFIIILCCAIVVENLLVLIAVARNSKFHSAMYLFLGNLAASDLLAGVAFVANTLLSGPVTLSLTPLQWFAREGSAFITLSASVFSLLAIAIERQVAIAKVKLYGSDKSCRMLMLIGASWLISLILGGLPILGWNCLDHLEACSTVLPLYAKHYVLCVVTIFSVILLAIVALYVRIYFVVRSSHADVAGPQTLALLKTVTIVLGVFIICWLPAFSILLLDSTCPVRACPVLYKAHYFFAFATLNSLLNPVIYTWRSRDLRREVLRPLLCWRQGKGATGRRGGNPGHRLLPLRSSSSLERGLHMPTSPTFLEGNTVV
T1 sequence (P21453 whole entry): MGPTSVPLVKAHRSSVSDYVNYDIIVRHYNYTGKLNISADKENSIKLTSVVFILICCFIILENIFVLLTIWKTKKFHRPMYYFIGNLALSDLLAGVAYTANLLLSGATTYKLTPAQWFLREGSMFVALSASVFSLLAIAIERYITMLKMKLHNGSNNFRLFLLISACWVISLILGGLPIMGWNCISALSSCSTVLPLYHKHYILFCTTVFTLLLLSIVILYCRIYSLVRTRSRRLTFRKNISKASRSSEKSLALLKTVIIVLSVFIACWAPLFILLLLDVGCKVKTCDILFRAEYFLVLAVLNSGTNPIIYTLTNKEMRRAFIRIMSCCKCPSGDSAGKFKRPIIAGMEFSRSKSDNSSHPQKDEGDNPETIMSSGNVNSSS
T2 sequence (Q99500 whole entry): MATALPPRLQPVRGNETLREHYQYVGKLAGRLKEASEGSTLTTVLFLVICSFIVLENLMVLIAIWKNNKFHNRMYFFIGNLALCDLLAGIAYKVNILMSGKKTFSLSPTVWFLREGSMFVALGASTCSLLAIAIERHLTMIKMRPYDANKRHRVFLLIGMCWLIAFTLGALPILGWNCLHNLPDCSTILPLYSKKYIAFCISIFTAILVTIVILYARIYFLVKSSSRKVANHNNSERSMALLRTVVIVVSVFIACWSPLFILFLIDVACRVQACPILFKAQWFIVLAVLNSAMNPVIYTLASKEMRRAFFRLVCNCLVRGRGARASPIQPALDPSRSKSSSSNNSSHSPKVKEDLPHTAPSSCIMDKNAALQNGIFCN

Compound | Increase in IL-8 release compared to untreated cells (rat edg4; COS-1 cells transfected with EDG-4 expression plasmid, 5 μm, overnight) [fold] | PTX sensitivity of IL-8 response (rat edg4; EDG-4 transfected COS-1 cells, PTX 50 ng/ml) | IL-8 response in control cells (COS-1 cells) | IL-8 production (293-EBNA cells) | Concentration at which toxicity begins (HL-60 cells) [µM] | Luciferase activity (NF-κB reporter) (EDG-1 [1]) | Cell viability 24 hr after treatment (HeLa cells) | Increase in intracellular calcium (human EDG-3) [nM] | Increase in luciferase activity (SRE reporter) (EDG-1 [2]) [fold] | IL-8 response (qualitative) [3]
CCCCCCCCCCCCC/C=C/[C@@H](O)[C@@H](N)COP(=O)(O)O [S1P, sphingosine-1-phosphate] | 2 | pertussis toxin sensitive | No IL-8 response | no IL-8 production | 10 | no increase in luciferase activity | No loss of HeLa viability | 300 | 8 | –
CCCCCCCCCCCCC/C=C/[C@@H](O)[C@@H](N)COP(=O)([O-])OCC[N+](C)(C)C [SPC, sphingosylphosphorylcholine] | – | – | – | – | – | – | – | – | – | Marginal increases
